Drawing on PMC9302676 (Chemsuschem, 2022), this text covers Kd for one compound.

In experiment [1] the target is P450 BM3 (CYP102A1) (Priestia megaterium, UniProt P14779, N320L/T412V/T437A). Nature of the experiment: biochemical.
Experiment [2] concerns the target P450 BM3 (CYP102A1) (Priestia megaterium, UniProt P14779). The experiment can be described thus: biochemical.

Chain of P450 BM3 (CYP102A1) (Priestia megaterium, UniProt P14779) (P14779 whole entry): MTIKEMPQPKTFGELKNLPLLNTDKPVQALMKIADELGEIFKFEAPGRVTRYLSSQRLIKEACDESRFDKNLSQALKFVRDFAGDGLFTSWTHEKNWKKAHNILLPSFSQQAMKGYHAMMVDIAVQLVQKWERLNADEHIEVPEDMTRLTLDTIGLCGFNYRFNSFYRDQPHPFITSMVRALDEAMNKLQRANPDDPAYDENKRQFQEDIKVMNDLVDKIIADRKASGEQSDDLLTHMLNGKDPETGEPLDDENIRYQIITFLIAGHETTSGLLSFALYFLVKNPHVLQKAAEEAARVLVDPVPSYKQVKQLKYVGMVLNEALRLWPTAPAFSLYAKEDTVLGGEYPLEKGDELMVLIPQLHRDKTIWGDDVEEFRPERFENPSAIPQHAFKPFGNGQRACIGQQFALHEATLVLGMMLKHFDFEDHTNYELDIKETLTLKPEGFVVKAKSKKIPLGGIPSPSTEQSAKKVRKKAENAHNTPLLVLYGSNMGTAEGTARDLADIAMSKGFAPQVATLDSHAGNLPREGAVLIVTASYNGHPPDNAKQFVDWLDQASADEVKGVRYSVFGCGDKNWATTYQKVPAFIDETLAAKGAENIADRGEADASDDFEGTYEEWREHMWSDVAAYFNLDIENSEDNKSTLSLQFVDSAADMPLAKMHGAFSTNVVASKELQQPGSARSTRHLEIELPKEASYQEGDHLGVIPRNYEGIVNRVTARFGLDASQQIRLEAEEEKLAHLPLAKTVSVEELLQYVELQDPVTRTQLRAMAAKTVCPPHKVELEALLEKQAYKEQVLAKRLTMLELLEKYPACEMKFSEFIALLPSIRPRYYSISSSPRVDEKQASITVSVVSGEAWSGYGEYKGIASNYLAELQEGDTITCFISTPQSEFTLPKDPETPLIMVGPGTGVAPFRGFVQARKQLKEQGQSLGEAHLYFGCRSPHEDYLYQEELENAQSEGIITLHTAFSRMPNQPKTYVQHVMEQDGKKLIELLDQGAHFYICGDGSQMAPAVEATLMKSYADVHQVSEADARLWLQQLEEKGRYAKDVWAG
Chain of P450 BM3 (CYP102A1) (Priestia megaterium, UniProt P14779, N320L/T412V/T437A) (P14779 whole entry N320L/T412V/T437A): as the sequence (P14779 whole entry) above, with N320L, T412V, T437A counted along it

One may read the Kd as the equilibrium constant for the complex coming apart. The low end stands for higher affinity, the high end for lower affinity. For the compound `CC1=CC(=O)CC(C)(C)C1` [α-isophorone], the results for the dissociation constant (Kd) at P450 BM3 (CYP102A1) [1] and on P450 BM3 (CYP102A1) [2] were 6.263 ± 0.047 mM and 6.85 ± 0.079 mM, respectively.
